Tested on: E. coli strain W3110
Test: Synergy assays: Biolog chemical sensitivity panels with Group IB metal, coefficient of drug interaction (CDI) from relative growth
Format: cell-based
Conditions: for CDI (coefficient of drug interaction), gold + biocide: Gold (μM)
[1] = Copper (mM), 1st of 3 copper concentrations (head line not shown), biocide concentration 1 of 4, E. coli
[2] = Copper (mM), 1st of 3 copper concentrations (head line not shown), biocide concentration 2 of 4, E. coli
[3] = Copper (mM), 1st of 3 copper concentrations (head line not shown), biocide concentration 3 of 4, E. coli
[4] = Copper (mM), 1st of 3 copper concentrations (head line not shown), biocide concentration 4 of 4, E. coli
[5] = Copper (mM), 2nd of 3 copper concentrations (head line not shown), biocide concentration 1 of 4, E. coli
[6] = Copper (mM), 2nd of 3 copper concentrations (head line not shown), biocide concentration 2 of 4, E. coli
[7] = Copper (mM), 2nd of 3 copper concentrations (head line not shown), biocide concentration 3 of 4, E. coli
[8] = Copper (mM), 2nd of 3 copper concentrations (head line not shown), biocide concentration 4 of 4, E. coli
[9] = Copper (mM), 3rd of 3 copper concentrations (head line not shown), biocide concentration 1 of 4, E. coli
[10] = Copper (mM), 3rd of 3 copper concentrations (head line not shown), biocide concentration 2 of 4, E. coli
[11] = Copper (mM), 3rd of 3 copper concentrations (head line not shown), biocide concentration 3 of 4, E. coli
[12] = Copper (mM), 3rd of 3 copper concentrations (head line not shown), biocide concentration 4 of 4, E. coli
[13] = Gold section of Table 5, first of three gold concentrations (μM, value not given), biocide concentration 4 of 4
[14] = Gold section of Table 5, second of three gold concentrations (μM, value not given), biocide concentration 1 of 4
[15] = Gold section of Table 5, second of three gold concentrations (μM, value not given), biocide concentration 3 of 4
[16] = Gold section of Table 5, second of three gold concentrations (μM, value not given), biocide concentration 4 of 4
[17] = Gold section of Table 5, third of three gold concentrations (μM, value not given), biocide concentration 1 of 4
[18] = Gold section of Table 5, third of three gold concentrations (μM, value not given), biocide concentration 2 of 4
[19] = Gold section of Table 5, third of three gold concentrations (μM, value not given), biocide concentration 4 of 4
[20] = Silver 0.5 μM, biocide concentration 1 of 4
[21] = Silver 0.5 μM, biocide concentration 2 of 4
[22] = Silver 0.5 μM, biocide concentration 3 of 4
[23] = Silver 0.5 μM, biocide concentration 4 of 4
[24] = Silver 1.0 μM, biocide concentration 1 of 4
[25] = Silver 1.0 μM, biocide concentration 2 of 4
[26] = Silver 1.0 μM, biocide concentration 3 of 4
[27] = Silver 1.0 μM, biocide concentration 4 of 4
[28] = Silver 5.0 μM, biocide concentration 3 of 4
[29] = Silver 5.0 μM, biocide concentration 4 of 4
[30] = Silver 5.0 μM, biocide concentration 1 of 4
[31] = Silver 5.0 μM, biocide concentration 2 of 4

## O=C(O)CN(CCOCCOCCN(CC(=O)O)CC(=O)O)CC(=O)O [EGTA]
Copper 0.1 mM, biocide concentration 1 of 4
  CDI: 1.05
Copper 0.1 mM, biocide concentration 2 of 4
  CDI: 1.25
Copper 0.1 mM, biocide concentration 3 of 4
  CDI: 1.28
Copper 0.1 mM, biocide concentration 4 of 4
  CDI: 1.06
Copper 0.5 mM, biocide concentration 1 of 4
  CDI: 0.87
Copper 0.5 mM, biocide concentration 2 of 4
  CDI: 1.02
Copper 0.5 mM, biocide concentration 3 of 4
  CDI: 1.06
Copper 0.5 mM, biocide concentration 4 of 4
  CDI: 1.04
Copper 1.0 mM, biocide concentration 1 of 4
  CDI: 0.94
Copper 1.0 mM, biocide concentration 2 of 4
  CDI: 1.30
Copper 1.0 mM, biocide concentration 3 of 4
  CDI: 1.59
Copper 1.0 mM, biocide concentration 4 of 4
  CDI: 1.44
Gold 5 μM, biocide concentration 1 of 4, E. coli
  CDI (coefficient of drug interaction): 1.05
Gold 5 μM, biocide concentration 2 of 4, E. coli
  CDI (coefficient of drug interaction): 0.88
Gold 5 μM, biocide concentration 3 of 4, E. coli
  CDI (coefficient of drug interaction): 0.94
Gold 5 μM, biocide concentration 4 of 4, E. coli
  CDI (coefficient of drug interaction): 0.92
Gold 25 μM, biocide concentration 1 of 4, E. coli
  CDI (coefficient of drug interaction): 1.07
Gold 25 μM, biocide concentration 2 of 4, E. coli
  CDI (coefficient of drug interaction): 1.00
Gold 25 μM, biocide concentration 3 of 4, E. coli
  CDI (coefficient of drug interaction): 0.95
Gold 25 μM, biocide concentration 4 of 4, E. coli
  CDI (coefficient of drug interaction): 0.97
Silver 0.5 μM, 1st of four biocide concentrations, E. coli
  CDI (coefficient of drug interaction), silver + biocide: 0.74
Silver 0.5 μM, 2nd of four biocide concentrations, E. coli
  CDI (coefficient of drug interaction), silver + biocide: 0.86
Silver 0.5 μM, 3rd of four biocide concentrations, E. coli
  CDI (coefficient of drug interaction), silver + biocide: 0.82
Silver 0.5 μM, 4th of four biocide concentrations, E. coli
  CDI (coefficient of drug interaction), silver + biocide: 0.92
Silver 1.0 μM, 1st of four biocide concentrations, E. coli
  CDI (coefficient of drug interaction), silver + biocide: 1.02
Silver 1.0 μM, 2nd of four biocide concentrations, E. coli
  CDI (coefficient of drug interaction), silver + biocide: 1.07
Silver 1.0 μM, 3rd of four biocide concentrations, E. coli
  CDI (coefficient of drug interaction), silver + biocide: 1.01
Silver 1.0 μM, 4th of four biocide concentrations, E. coli
  CDI (coefficient of drug interaction), silver + biocide: 1.02
Silver 5.0 μM, 1st of four biocide concentrations, E. coli
  CDI (coefficient of drug interaction), silver + biocide: 1.13
Silver 5.0 μM, 2nd of four biocide concentrations, E. coli
  CDI (coefficient of drug interaction), silver + biocide: 0.98
Silver 5.0 μM, 3rd of four biocide concentrations, E. coli
  CDI (coefficient of drug interaction), silver + biocide: 0.72
Silver 5.0 μM, 4th of four biocide concentrations, E. coli
  CDI (coefficient of drug interaction), silver + biocide: 0.4
[…], biocide concentration 1 of 4, E. coli
  CDI (coefficient of drug interaction): 1.02
[…], biocide concentration 2 of 4, E. coli
  CDI (coefficient of drug interaction): 1.13
[…], biocide concentration 3 of 4, E. coli
  CDI (coefficient of drug interaction): 1.04
[…], biocide concentration 4 of 4, E. coli
  CDI (coefficient of drug interaction): 1.11

## O=S(=O)(F)Cc1ccccc1 [PMSF]
[1]
  CDI (coefficient of drug interaction): 0.76
[2]
  CDI (coefficient of drug interaction): 0.71
[3]
  CDI (coefficient of drug interaction): 0.62
[4]
  CDI (coefficient of drug interaction): 0.71
[5]
  CDI (coefficient of drug interaction): 0.59
[6]
  CDI (coefficient of drug interaction): 0.58
[7]
  CDI (coefficient of drug interaction): 0.37
[8]
  CDI (coefficient of drug interaction): 0.46
[9]
  CDI (coefficient of drug interaction): 0.41
[10]
  CDI (coefficient of drug interaction): 0.42
[11]
  CDI (coefficient of drug interaction): 0.34
[12]
  CDI (coefficient of drug interaction): 0.38
Gold section of Table 5, first of three gold concentrations (μM, value not given), biocide concentration 1 of 4
  CDI (coefficient of drug interaction): 1.07
Gold section of Table 5, first of three gold concentrations (μM, value not given), biocide concentration 2 of 4
  CDI (coefficient of drug interaction): 0.96
Gold section of Table 5, first of three gold concentrations (μM, value not given), biocide concentration 3 of 4
  CDI (coefficient of drug interaction): 0.93
[13]
  CDI (coefficient of drug interaction): 0.74
[14]
  CDI (coefficient of drug interaction): 1.03
Gold section of Table 5, second of three gold concentrations (μM, value not given), biocide concentration 2 of 4
  CDI (coefficient of drug interaction): 1.05
[15]
  CDI (coefficient of drug interaction): 1.11
[16]
  CDI (coefficient of drug interaction): 0.85
[17]
  CDI (coefficient of drug interaction): 1.07
[18]
  CDI (coefficient of drug interaction): 1.16
Gold section of Table 5, third of three gold concentrations (μM, value not given), biocide concentration 3 of 4
  CDI (coefficient of drug interaction): 1.21
[19]
  CDI (coefficient of drug interaction): 2.21
[20]
  CDI: 0.91
[21]
  CDI: 0.92
[22]
  CDI: 1.10
[23]
  CDI: 0.35
[24]
  CDI: 1.03
[25]
  CDI: 1.10
[26]
  CDI: 1.06
[27]
  CDI: 0.55
[28]
  CDI: 1.25
[29]
  CDI: 0.60

## Nc1ccc(S(=O)(=O)Nc2ncccn2)cc1 [sulfadiazine]
  cell toxicity / growth curves with and without silver: enhanced cell toxicity

## capreomycin
[1]
  CDI (coefficient of drug interaction): 1.10
[2]
  CDI (coefficient of drug interaction): 0.91
[3]
  CDI (coefficient of drug interaction): 0.83
[4]
  CDI (coefficient of drug interaction): 0.87
[5]
  CDI (coefficient of drug interaction): 0.87
[6]
  CDI (coefficient of drug interaction): 0.86
[7]
  CDI (coefficient of drug interaction): 0.90
[8]
  CDI (coefficient of drug interaction): Tox
[9]
  CDI (coefficient of drug interaction): 0.86
[10]
  CDI (coefficient of drug interaction): 0.57
[11]
  CDI (coefficient of drug interaction): 0.49
[12]
  CDI (coefficient of drug interaction): 0.60
[13]
  CDI (coefficient of drug interaction): 1.03
[14]
  CDI (coefficient of drug interaction): 1.03
[15]
  CDI (coefficient of drug interaction): 0.97
[16]
  CDI (coefficient of drug interaction): 1.06
[17]
  CDI (coefficient of drug interaction): 1.00
[18]
  CDI (coefficient of drug interaction): 0.98
[19]
  CDI (coefficient of drug interaction): 1.14
[20]
  CDI: 0.95
[21]
  CDI: 0.92
[22]
  CDI: 0.96
[23]
  CDI: Tox
[24]
  CDI: 0.69
[25]
  CDI: 0.37
[26]
  CDI: 0.35
[27]
  CDI: Tox
[30]
  CDI: 0.41
[31]
  CDI: 0.11
[28]
  CDI: 0.02
[29]
  CDI: Tox

## O=C(O)/C=C/c1ccccc1 [Cimamic acid]
[1]
  CDI (coefficient of drug interaction): 0.85
[2]
  CDI (coefficient of drug interaction): 0.74
[3]
  CDI (coefficient of drug interaction): 0.87
[4]
  CDI (coefficient of drug interaction): Tox
[5]
  CDI (coefficient of drug interaction): 0.70
[6]
  CDI (coefficient of drug interaction): 0.79
[7]
  CDI (coefficient of drug interaction): 1.11
[8]
  CDI (coefficient of drug interaction): Tox
[9]
  CDI (coefficient of drug interaction): 0.53
[10]
  CDI (coefficient of drug interaction): 0.54
[11]
  CDI (coefficient of drug interaction): 1.11
[12]
  CDI (coefficient of drug interaction): Tox
First of 3 gold concentrations, biocide concentration 2 of 4
  CDI (coefficient of drug interaction), gold + biocide: 1.09
First of 3 gold concentrations, biocide concentration 3 of 4
  CDI (coefficient of drug interaction), gold + biocide: 1.19
First of 3 gold concentrations, biocide concentration 4 of 4
  CDI (coefficient of drug interaction), gold + biocide: Tox
Second of 3 gold concentrations, biocide concentration 1 of 4
  CDI (coefficient of drug interaction), gold + biocide: 0.99
Second of 3 gold concentrations, biocide concentration 2 of 4
  CDI (coefficient of drug interaction), gold + biocide: 1.11
Second of 3 gold concentrations, biocide concentration 3 of 4
  CDI (coefficient of drug interaction), gold + biocide: 0.95
Second of 3 gold concentrations, biocide concentration 4 of 4
  CDI (coefficient of drug interaction), gold + biocide: Tox
Third of 3 gold concentrations, biocide concentration 1 of 4
  CDI (coefficient of drug interaction), gold + biocide: 0.98
Third of 3 gold concentrations, biocide concentration 2 of 4
  CDI (coefficient of drug interaction), gold + biocide: 0.85
Third of 3 gold concentrations, biocide concentration 3 of 4
  CDI (coefficient of drug interaction), gold + biocide: 0.96
Third of 3 gold concentrations, biocide concentration 4 of 4
  CDI (coefficient of drug interaction), gold + biocide: Tox
[20]
  CDI: 0.90
[21]
  CDI: 1.06
[22]
  CDI: 0.73
[23]
  CDI: Tox
[24]
  CDI: 0.88
[25]
  CDI: 0.93
[26]
  CDI: 0.99
[27]
  CDI: Tox
[30]
  CDI: 0.88
[31]
  CDI: 0.92
[29]
  CDI: Tox

## N#CC(C#N)=NNc1cccc(Cl)c1 [CCCP, Carbonyl cyanide m-chlorophenylhydrazone]
[4]
  CDI (coefficient of drug interaction): Tox
[8]
  CDI (coefficient of drug interaction): Tox
[12]
  CDI (coefficient of drug interaction): Tox
[23]
  CDI: Tox
[27]
  CDI: Tox
[29]
  CDI: Tox
